Measured values published in US9187467B2, “2-phenyl benzothiazole linked imidazole compounds as potential anticancer agents and process for the preparation thereof” (Council of Scientific and Industrial Research, priority 2012, dated 2015).
Like-named read-outs stand apart in the source and are kept apart here.

Experiments:
Format in all cases: cell-based, human
K-562 = test: SRB anticancer assay, leukemia; parameters: Log10GI50: unit not given here
NCI-H322M = test: SRB anticancer assay, non-small lung; details: Homo sapiens, 48 h
NCI-H522 = test: SRB anticancer assay, non-small lung; parameters: Log10GI50: unit not given here
HT29 = test: SRB anticancer assay, colon; details: Homo sapiens, HT-29; HT29, 48 h
KM12 = test: SRB anticancer assay, colon; details: Homo sapiens, KM12, 48 h
SF-268 = test: SRB anticancer assay, CNS; parameters: Log10GI50: unit not given here
SF-295 = test: SRB anticancer assay, CNS; parameters: Log10GI50: unit not given here
SF-539 = test: SRB anticancer assay, CNS; parameters: Log10GI50: unit not given here
SNB-19 = test: SRB anticancer assay, CNS; parameters: Log10GI50: unit not given here
OVCAR-5 = test: SRB anticancer assay, ovarian; details: Homo sapiens, OVCAR-5, 48 h
OVCAR-8 = test: SRB anticancer assay, ovarian; parameters: Log10GI50: unit not given here
SK-OV-3 = test: SRB anticancer assay, ovarian; details: Homo sapiens, SK-OV-3, 48 h
786-0 = test: SRB anticancer assay, renal
ACHN = test: SRB anticancer assay, renal; parameters: Log10GI50: unit not given here
TK-10 = test: SRB anticancer assay, renal; details: Homo sapiens, TK-10, 48 h
RXF 393 = test: SRB anticancer assay, renal; parameters: Log10GI50: unit not given here
PC-3 = test: SRB anticancer assay, prostate; parameters: Log10GI50: unit not given here
DU-145 = test: SRB anticancer assay, prostate; parameters: Log10GI50: unit not given here
MCF7 = test: SRB anticancer assay, breast; details: Homo sapiens, MCF7, 48 h
MDA-MB-231/ATCC = test: SRB anticancer assay, breast; parameters: Log10GI50: unit not given here; details: for GI50: Homo sapiens, MDA-MB-231, 48 h, 48 h, read-out: GI50
HS 578T = test: SRB anticancer assay, breast; parameters: Log10GI50: unit not given here
BT-549 = test: SRB anticancer assay, breast; parameters: Log10GI50: unit not given here
LOX IMVI = test: SRB anticancer assay, melanoma; parameters: Log10GI50: unit not given here
MALME-3M = test: SRB anticancer assay, melanoma; parameters: Log10GI50: unit not given here
SK-MEL-2 = test: SRB anticancer assay, melanoma
SK-MEL-28 = test: SRB anticancer assay, melanoma; parameters: Log10GI50: unit not given here
SK-MEL-5 = test: SRB anticancer assay, melanoma; details: Homo sapiens, SK-MEL-5, 48 h
UACC-257 = test: SRB anticancer assay, melanoma
UACC-62 = test: SRB anticancer assay, melanoma
CNS cancer cell lines = test: SRB anticancer assay, panel result
Description: (§1) The compounds were evaluated for anticancer activity against sixty human cancer cells derived from nine cancer types (leukemia cell line, non-small-cell lung cell line, colon cell line, CNS cell line, melanoma cell line, ovarian cell line, prostate cell line, renal cancer cell line and breast cancer cell line) as shown in Table 1. For each compound, dose response curves for each cell line were measured at a minimum of five concentrations at 10 fold dilutions. A protocol of 48 h continuous drug exposure was used and a sulforhodamine B (SRB) protein assay was used to estimate cell viability or growth.

[1] = test system: Leukemia cancer cell lines; test: SRB anticancer assay, panel result
Description: as §1

**Q.** Which GI50 (K-562; Homo sapiens, K562, K-562, 48 h) does the source give for `COc1cc(OC)cc(-c2cncn2-c2ccc(-c3nc4cc(OC)c(OC)c(OC)c4s3)cc2)c1` [Compound 7d, 2-(4-(5-(3,5-Dimethoxyphenyl)-1H-imidazol-1-yl)phenyl)-5,6,7-trimethoxybenzo[d]thiazole] here?
**A.** The GI50 was 3.57 µM.

**Q.** And the Log10GI50 (K-562; K-562, present compounds)?
**A.** The Log10GI50 was −5.45.

**Q.** What about the GI50 (NCI-H322M) of the same compound?
**A.** Its GI50 is 86.5 µM.

**Q.** What about the GI50 (NCI-H522; Homo sapiens, NCI-H522, 48 h) of the same compound?
**A.** The GI50 was 11.8 µM.

**Q.** And the Log10GI50 (NCI-H522; NCI-H522, present compounds)?
**A.** The Log10GI50 was −4.93.

**Q.** And the GI50 (HT29)?
**A.** The GI50 was 8.33 µM.

**Q.** And the GI50 (KM12)?
**A.** Its GI50 is 5.54 µM.

**Q.** What about the GI50 (SF-268; Homo sapiens, SF-268, 48 h) of the same compound?
**A.** The GI50 was 22.1 µM.

**Q.** And the Log10GI50 (SF-268; SF-268, present compounds)?
**A.** The Log10GI50 was −4.66.

**Q.** And the GI50 (SF-295; Homo sapiens, SF-295, 48 h)?
**A.** Its GI50 is 3.64 µM.

**Q.** And the Log10GI50 (SF-295; SF-295, present compounds)?
**A.** Its Log10GI50 is −5.44.

**Q.** What about the GI50 (SF-539; Homo sapiens, SF-539, 48 h) of the same compound?
**A.** The GI50 was 22 µM.

**Q.** And the Log10GI50 (SF-539; SF-539, present compounds)?
**A.** Its Log10GI50 is −4.66.

**Q.** And the GI50 (SNB-19; Homo sapiens, SNB-19, 48 h)?
**A.** Its GI50 is 19.7 µM.

**Q.** And the Log10GI50 (SNB-19; SNB-19, present compounds)?
**A.** The Log10GI50 was −4.70.

**Q.** What about the GI50 (OVCAR-5) of the same compound?
**A.** Its GI50 is > 100 µM.

**Q.** What about the GI50 (OVCAR-8; Homo sapiens, OVCAR-8, 48 h) of the same compound?
**A.** The GI50 was 13.4 µM.

**Q.** And the Log10GI50 (OVCAR-8; OVCAR-8, present compounds)?
**A.** The Log10GI50 was −4.87.

**Q.** And the GI50 (SK-OV-3)?
**A.** The GI50 was 49.9 µM.

**Q.** What about the Log10GI50 (786-0; 786-0, present compounds) of the same compound?
**A.** The Log10GI50 was −4.99 log10 M.

**Q.** What about the GI50 (786-0; Homo sapiens, 786-0, 48 h) of the same compound?
**A.** Its GI50 is 10.3 µM.

**Q.** What about the GI50 (ACHN; Homo sapiens, 48 h) of the same compound?
**A.** The GI50 was 11.5 µM.

**Q.** And the Log10GI50 (ACHN; present compounds)?
**A.** Its Log10GI50 is −4.94.

**Q.** What about the GI50 (TK-10) of the same compound?
**A.** The GI50 was 26.4 µM.

**Q.** And the GI50 (RXF 393; Homo sapiens, RXF 393, 48 h)?
**A.** The GI50 was 30.2 µM.

**Q.** What about the Log10GI50 (RXF 393; RXF 393, present compounds) of the same compound?
**A.** Its Log10GI50 is −4.52.

**Q.** What about the GI50 (PC-3; Homo sapiens, PC-3, 48 h) of the same compound?
**A.** Its GI50 is 3.17 µM.

**Q.** What about the Log10GI50 (PC-3; PC-3, present compounds) of the same compound?
**A.** The Log10GI50 was −5.50.

**Q.** What about the Log10GI50 (DU-145; DU-145, present compounds) of the same compound?
**A.** Its Log10GI50 is −4.51.

**Q.** What about the GI50 (DU-145; Homo sapiens, DU-145, 48 h) of the same compound?
**A.** The GI50 was 31.1 µM.

**Q.** And the GI50 (MCF7)?
**A.** The GI50 was 4.02 µM.

**Q.** And the GI50 (MDA-MB-231/ATCC; MDA-MB-231/ATCC (row head MDA-MB-))?
**A.** Its GI50 is 19.2 µM.

**Q.** And the GI50 (MDA-MB-231/ATCC; row head printed 231/ATCC (second line of MDA-MB-231/ATCC))?
**A.** Its GI50 is 20.9 µM.

**Q.** What about the Log10GI50 (MDA-MB-231/ATCC; MDA-MB-231/ATCC, present compounds) of the same compound?
**A.** Its Log10GI50 is −4.72.

**Q.** And the GI50 (HS 578T; Homo sapiens, 48 h)?
**A.** The GI50 was 6.71 µM.

**Q.** What about the Log10GI50 (HS 578T; present compounds) of the same compound?
**A.** The Log10GI50 was −4.68.

**Q.** What about the Log10GI50 (BT-549; BT-549, present compounds) of the same compound?
**A.** The Log10GI50 was −5.17.

**Q.** And the GI50 (BT-549; Homo sapiens, BT-549, 48 h)?
**A.** The GI50 was 4.74 µM.

**Q.** And the GI50 (LOX IMVI; Homo sapiens, 48 h)?
**A.** Its GI50 is 6.93 µM.

**Q.** And the Log10GI50 (LOX IMVI; present compounds)?
**A.** The Log10GI50 was −5.16.

**Q.** What about the GI50 (MALME-3M; Homo sapiens, Malme-3M, 48 h) of the same compound?
**A.** Its GI50 is 9.58 µM.

**Q.** What about the Log10GI50 (MALME-3M; MALME-3M, present compounds) of the same compound?
**A.** The Log10GI50 was −5.02.

**Q.** What about the GI50 (SK-MEL-2; Homo sapiens, SK-MEL-2, 48 h) of the same compound?
**A.** Its GI50 is 6.16 µM.

**Q.** What about the Log10GI50 (SK-MEL-2; SK-MEL-2, present compounds) of the same compound?
**A.** Its Log10GI50 is −5.21 M.

**Q.** And the GI50 (SK-MEL-28; Homo sapiens, SK-MEL-28, 48 h)?
**A.** Its GI50 is 31.6 µM.

**Q.** What about the Log10GI50 (SK-MEL-28; SK-MEL-28, present compounds) of the same compound?
**A.** Its Log10GI50 is −4.50.

**Q.** What about the GI50 (SK-MEL-5) of the same compound?
**A.** Its GI50 is 2.85 µM.

**Q.** What about the GI50 (UACC-257; Homo sapiens, UACC-257, 48 h) of the same compound?
**A.** The GI50 was 20.5 µM.

**Q.** What about the Log10GI50 (UACC-257; UACC-257, present compounds) of the same compound?
**A.** The Log10GI50 was −4.69 log10(M).

**Q.** And the GI50 (UACC-62; Homo sapiens, UACC-62, 48 h)?
**A.** Its GI50 is 13.8 µM.

**Q.** What about the Log10GI50 (UACC-62; UACC-62, present compounds) of the same compound?
**A.** Its Log10GI50 is −4.86 log10 M.

**Q.** What about the “mean graph midpoint value (MG_MID) of log10 TGI” value (CNS cancer cell lines; CNS panel, total inhibition of net cell growth) of the same compound?
**A.** Its value is −4.11.

**Q.** And the CC50 (CNS cancer cell lines; Homo sapiens, CNS panel, 50% net cell death, read-out: mean graph midpoint value (MG_MID) of Log10 LC50 (converted))?
**A.** The CC50 was > 100 µM.

**Q.** And the GI50 (CNS cancer cell lines; Homo sapiens, CNS panel, read-out: mean graph midpoint value (MG_MID) of Log10 GI50 (converted))?
**A.** Its GI50 is 12 µM.

**Q.** What about the GI50 (CNS cancer cell lines; Homo sapiens, six CNS cancer cell lines, exposure at least 48 h, read-out: GI50, range over the panel) of the same compound?
**A.** The GI50 was 3.64 to 22.1 µM.

**Q.** And the LC50 ([1]; Homo sapiens, Leukemia panel, 50% net cell death, read-out: mean graph midpoint value (MG_MID) of Log10 LC50 (converted))?
**A.** The LC50 was > 100 µM.

**Q.** And the GI50 ([1]; Homo sapiens, Leukemia panel, read-out: mean graph midpoint value (MG_MID) of Log10 GI50 (converted))?
**A.** The GI50 was 3.72 µM.

**Q.** And the GI50 ([1]; Homo sapiens, six leukemia cancer cell lines, exposure at least 48 h, read-out: GI50, range over the panel)?
**A.** The GI50 was 2.43 to 7.14 µM.

**Q.** And the “mean graph midpoint value (MG_MID) of log10 TGI” value ([1]; Leukemia panel, total inhibition of net cell growth)?
**A.** Its value is >−4.0.
